Results as given in publication PMC11434868, “Synthesis and Antiproliferative Effect of 3,4,5-Trimethoxylated Chalcones on Colorectal and Prostatic Cancer Cells” (Pharmaceuticals, 2024).
Like-named read-outs stand apart in the source and are kept apart here.

Key:
[1] = tested on: PC3; test: MTT assay, antiproliferative effect on PC3; assay type: cell-based; conditions: Homo sapiens
Description: (§1) Human CRC (HCT116 and HT-29) and PCa (DU145 and PC3) cell lines were purchased from the American Type Culture Collection (ATCC—LGC Standards, Molsheim, France). All cells were grown in RPMI 1640 medium supplemented with 10% FBS, 1% L-glutamine, 100 U/mL penicillin, and 100 μg/mL streptomycin. Cultures were maintained in a humidified atmosphere containing 5% CO2 at 37 °C. Cells were seeded in 75 cm^2 culture flasks at 1.2 × 10^4 cells/cm^2 for HCT116, DU145, and PC3 cells, and 2.0 × 10^4 for HT-29 cells. Cells were grown for 24 h in culture medium prior to exposure or not to obtain the synthesized compounds. Stock solutions (10^−2 M in DMSO) of each compound were diluted in culture medium to obtain appropriate final concentrations.
(§2) • (a) MTT assay: The antiproliferative effect of all compounds was determined using MTT assay (a metabolic activity test). Briefly, cells were seeded in 96-well culture plates at 4 × 10^3 cells/well for HCT116, PC3, and DU145 cells and 6 × 10^3 cells/well for HT-29 cells (100 µL/well), and grown for 24 h in culture medium prior to exposure or not to obtain compounds 1–15 with concentrations ranging from 5 nM to 50 μM. After 24 and 48 h of treatment, MTT (5 mg/mL in PBS) was added and incubated for another 3 h. MTT was then removed from the wells before adding 100 μL/well of DMSO. The optical density was detected with a microplate reader (Multiskan FC, Thermoscientific, Bordeaux, France) at 550 nm and cell viability was expressed as a percentage of each treatment condition compared to control cells. IC50 values were calculated for all compounds from the dose–response curve. Data are expressed as the arithmetic means ± standard error of the mean (SEM) of separate experiments. All experiments were performed at least in triplicate. • (b) Trypan blue dye exclusion method: Cells were grown for 24 h then treated with compounds 10 and 13 at indicated concentrations. After 48 h of treatment, cells were trypsinized and resuspended in complete medium. Each sample was mixed with Trypan blue solution (0.14% in HBSS, Invitrogen-GIBCO, ThermoFisher, Illkirch, France). Colored (non-viable) and dye-excluding (viable) cells were counted with the LUNA-II automated cell Counter (Logos Biosystems; MC2, Aubière, France). The control was normalized to 100% including viable and dead cells. The results indicated on the histograms were expressed as the percentage of cells compared to the control. IC50 values were determined from the percentages of viable cells compared to the control.

[2] = tested on: HCT116; test: MTT assay, antiproliferative effect on HCT116; assay type: cell-based; conditions: Homo sapiens
Description: as §1, §2

[3] = tested on: DU145; test: MTT assay, antiproliferative effect on DU145; assay type: cell-based; conditions: Homo sapiens
Description: as §1, §2

[4] = tested on: DU145; test: Trypan blue dye exclusion method on DU145; assay type: cell-based, human
Description: as §1, §2

[5] = tested on: caspase-3 and PARP in DU145 cells; test: Western blot of apoptosis-related proteins in DU145; assay type: cell-based, human; conditions: DU145, 48 h;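 note: compared with untreated control cells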
Description: (§3) For total protein extraction, collected samples of each condition were washed in PBS. Then, the total cell pool was centrifuged at 200 g for 5 min at 4 °C and homogenized in RIPA lysis buffer (50 mM HEPES, pH 7.5, 150 mM NaCl, 1% sodium deoxycholate, 1% NP-40, 0.1% SDS, […] of aprotinin) containing protease inhibitors according to the manufacturer’s instructions. After quantification of protein levels using the Bradford method, proteins ([…]) were separated on 12.5% SDS-PAGE gels and transferred to PVDF membranes (GE Healthcare Life Science—Fisher Scientific). Membranes were probed with respective antibodies against human caspase-3, cleaved caspase-3, and PARP according to the manufacturer’s instructions. After incubation with appropriate secondary antibodies, blots were developed using the “ImmobilonWestern” substrate, following the manufacturer’s protocol, and G:BOX system (Syngene, Cambridge, UK). Membranes were then reblotted with human anti-β-actin used as a loading control.

[6] = tested on: HT-29; test: MTT assay, antiproliferative effect on HT-29; assay type: cell-based, human; conditions: Homo sapiens
Description: as §1, §2

[7] = tested on: HCT116; test: Trypan blue dye exclusion method on HCT116; assay type: cell-based, human
Description: as §1, §2

[8] = tested on: caspase-3 and PARP in HT-29 cells; test: Western blot of apoptosis-related proteins in HT-29; assay type: cell-based, human; conditions: HT-29, 48 h;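 note: compared with untreated control cells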
Description: as §3

[9] = tested on: human CRC (HCT116 and HT-29) and human PCa (DU145 and PC3) cell lines; test: MTT assay, summary statements over the cell lines; assay type: cell-based; conditions: 48 h, read-out: IC50 towards the selected cell lines
Description: as §1, §2

[10] = tested on: HT-29; test: Trypan blue dye exclusion method on HT-29; assay type: cell-based, human
Description: as §1, §2

[11] = tested on: PC3; test: Trypan blue dye exclusion method on PC3; assay type: cell-based, human
Description: as §1, §2

[12] = tested on: caspase-3 and PARP in HCT116 cells; test: Western blot of apoptosis-related proteins in HCT116; assay type: cell-based, human; conditions: HCT116, 48 h;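 note: compared with untreated control cells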
Description: as §3

IC50 ([1]; PC-3, 24 h, read-out: IC50 PC3 24 h): 0.044 ± 0.006 µM | IC50 ([1]; PC-3, 48 h, read-out: IC50 PC3 48 h): 0.017 ± 0.005 µM | IC50 ([2]; HCT-116, 24 h, read-out: IC50 HCT116 24 h): 0.282 ± 0.012 µM | IC50 ([2]; HCT-116, 48 h, read-out: IC50 HCT116 48 h): 0.039 ± 0.001 µM | IC50 ([3]; DU-145, 24 h, read-out: IC50 DU145 24 h): 0.051 ± 0.006 µM | IC50 ([3]; DU-145, 48 h, read-out: IC50 DU145 48 h): 0.02 ± 0.002 µM | IC50 ([4]; Homo sapiens, DU-145, 48 h, from percentages of viable cells, read-out: IC50 Trypan Blue Test DU145): 0.04 µM | IC50 ([6]; HT-29, 24 h, 24 h, read-out: IC50 HT-29 24 h): 0.041 ± 0.001 µM | IC50 ([6]; HT-29, 48 h, 48 h, read-out: IC50 HT-29 48 h): 0.028 ± 0.001 µM | IC50 ([7]; Homo sapiens, HCT-116, 48 h, from percentages of viable cells, read-out: IC50 Trypan Blue Test HCT116): 0.043 µM | IC50 [9]: < 0.04 µM | IC50 ([9]; Homo sapiens): < 0.05 µM | IC50 ([10]; Homo sapiens, HT-29, 48 h, from percentages of viable cells, read-out: IC50 Trypan Blue Test HT-29): 0.021 µM | IC50 ([11]; Homo sapiens, PC-3, 48 h, from percentages of viable cells, read-out: IC50 Trypan Blue Test PC3): 0.032 µM
Structure (SMILES): COc1cc(C(=O)/C=C/c2c[nH]c3ccccc23)cc(OC)c1OC [chalcone 10, (E)-3-(1H-indol-3-yl)-1-(3,4,5-trimethoxyphenyl)prop-2-en-1-one]
Dead cells ([4]; DU145, 48 h, 0.010 µM): 2.21% | Dead cells ([4]; DU145, 48 h, 0.050 µM): 3.40% | Dead cells ([4]; DU145, 48 h, 0.100 µM): 5.30% | viability at 0.01 µM ([4]; Homo sapiens, DU-145, DU145, 48 h, 0.010 µM, read-out: Viable cells): 88.9% | viability at 0.05 µM ([4]; Homo sapiens, DU-145, DU145, 48 h, 0.050 µM, read-out: Viable cells): 40.6% | viability at 0.1 µM ([4]; Homo sapiens, DU-145, DU145, 48 h, 0.100 µM, read-out: Viable cells): 18.4% | PARP cleavage (89 kDa fragment) [5]: induced PARP cleavage | cleaved caspase-3 [5]: clearly observed | native PARP expression [5]: strong decreased expression | pro-caspase-3 expression [5]: decrease was less marked | Dead cells ([7]; HCT116, 48 h, 0.050 µM): 6.76% | Dead cells ([7]; HCT116, 48 h, 0.100 µM): 0.85% | viability at 0.01 µM ([7]; Homo sapiens, HCT-116, HCT116, 48 h, 0.010 µM, percentage of cells compared to control, read-out: Viable cells): 97.7% | viability at 0.05 µM ([7]; Homo sapiens, HCT-116, HCT116, 48 h, 0.050 µM, read-out: Viable cells): 43.2% | viability at 0.1 µM ([7]; Homo sapiens, HCT-116, HCT116, 48 h, 0.100 µM, read-out: Viable cells): 17.4% | PARP cleavage (89 kDa fragment) [8]: induced PARP cleavage | cleaved caspase-3 [8]: more weakly produced | native PARP expression [8]: strong decreased expression | pro-caspase-3 expression [8]: decreased | Dead cells ([10]; HT-29, 48 h, 0.010 µM): 3.78% | Dead cells ([10]; HT-29, 48 h, 0.050 µM): 3.36% | Dead cells ([10]; HT-29, 48 h, 0.100 µM): 1.68% | viability at 0.01 µM ([10]; Homo sapiens, HT-29, 48 h, 0.010 µM, read-out: Viable cells): 76.2% | viability at 0.05 µM ([10]; Homo sapiens, HT-29, 48 h, 0.050 µM, read-out: Viable cells): 15.9% | viability at 0.1 µM ([10]; Homo sapiens, HT-29, 48 h, 0.100 µM, read-out: Viable cells): 10.7% | viability at 0.01 µM ([11]; Homo sapiens, PC-3, PC3, 48 h, 0.010 µM, read-out: Viable cells): 91.9% | viability at 0.05 µM ([11]; Homo sapiens, PC-3, PC3, 48 h, 0.050 µM, read-out: Viable cells): 31.3% | viability at 0.1 µM ([11]; Homo sapiens, PC-3, PC3, 48 h, 0.100 µM, read-out: Viable cells): 16.5% | Dead cells ([11]; PC3, 48 h, 0.010 µM): 9.33% | Dead cells ([11]; PC3, 48 h, 0.100 µM): 4.44% | PARP cleavage (89 kDa fragment) [12]: induced PARP cleavage | cleaved caspase-3 [12]: clearly observed | native PARP expression [12]: strong decreased expression | pro-caspase-3 expression [12]: decreased
